Common to all, as to assay type: in vivo
For assay [1], the system named is larvae of the green rice leaf hopper (Nephotettix cincticeps). In words: Nephotettix test. Particulars: active compound concentration of 0.1%, after 6 days; rice seedlings dipped. How it is done: Nephotettix Test [table] To produce a suitable preparation of active compound, 1 part by weight of active compound is mixed with the stated amount of solvent and the stated amount of emulsifier, and the concentrate is diluted with water to the desired concentration. Rice seedlings (Oryzae sativa) are treated by being dipped into the preparation of the active compound of the desired concentration and are infested with larvae of the green rice leaf hopper (Nephotettix cincticeps) while the seedlings are still moist. After the specified period of time, the destruction in % is determined. 100% means that all the larvae have been killed; 0% means that none of the larvae have been killed.

In assay [2] the test system is caterpillars of the owlet moth (Spodoptera frugiperda). As to the kind of experiment: Spodoptera test. Particulars: active compound concentration of 0.1%, after 7 days; cabbage leaves dipped. The method, then: To produce a suitable preparation of active compound, 1 part by weight of active compound is mixed with the stated amount of solvent and the stated amount of emulsifier, an d the concentrate is diluted with water to the d esired concentration.
Cabbage leaves (Brassica oleracea) are treated by being dipped into the preparation of the active compound of the desired concentration and are infested with caterpillars of the owlet moth (Spodoptera frugiperda) as long, as the leaves are still moist.
After the specified period of time, the destruction in % is determined. 100% means that all the caterpillars have been killed; 0% means that none of the caterpiliars have been killed.

For assay [3], the system named is mustard beetle larvae (Phaedon cochleariae). In words: Phaedon larvae test. Particulars: active compound concentration of 0.1%, after 7 days; cabbage leaves dipped. How it is done:
Phaedon Larvae Test [table] To produce a suitable preparation of active compound, 1 part by weight of active compound is mixed with the stated amount of solvent and the stated amount of emulsifier, and the concentrate is diluted with water to the desired concentration. Cabbage leaves (Brassica oleracea) are treated by being dipped into the preparation of the active compound of the desired concentration and are infested with mustard beetle larvae (Phaedon cochleariae) while the leaves are still moist. After the specified period of time, the destruction in % is determined. 100% means that all the beetle larvae have been killed; 0% means that none of the beetle larvae have been killed.

Assay [4] relates to fruit tree spider mite (Panonychus ulmi). As to the kind of experiment: Panonychus test. The note with it: active compound concentration of 0.004%, after 7 days; plum trees sprayed. How it is done:
Panonychus Test [table] To prepare a suitable preparation of active compound, 1 part by weight of active compound is mixed with the stated amount of solvent and the stated amount of emulsifier, and the concentrate is diluted with water to the desired concentration. Plum trees (Prunus domestica) approximately 30 cm in height which are severely infested by all stages of the fruit tree spider mite (Panonychus ulmi) are sprayed with an active compound preparation of the desired concentration. After the specified period of time, the destruction in % is determined. 100% means that all the spider mites have been killed; 0% means that none of the spider mites have been killed.

The test system of assay [5] is caterpillars of the diamond-back moth (Plutella maculipennis). As to the kind of experiment: Plutella test. The note with it: active compound concentration of 0.1%, after 7 days; cabbage leaves dipped. How it is done: Plutella Test [table] To produce a suitable preparation of active compound, 1 part by weight of active compound is mixed with the stated amount of solvent and the stated amount of emulsifier, and the concentrate is diluted with water to the desired concentration. Cabbage leaves (Brassica oleracea) are treated by being dipped into the preparation of active compound of the desired concentration and are infested with caterpillars of the diamond-back moth (Plutella maculipennis) while the leaves are still moist. After the specified period of time, the destruction in % is determined. 100% means that all the caterpillars have been killed, 0% means that none of the caterpillars have been killed.

Consider three molecules from patent US6596873B1, “2-and 2,5-substituted phenylketoenols” (Bayer Aktiengesellschaft, priority 1996, dated 2003).

Regarding `Cc1ccccc1C1=C(O)C2(CCC(C)CC2)NC1=O` (centres unmarked) [Example I-1-a-1], the destruction in % in assay [1] was 100%; in assay [2] it was 85%; in assay [3], 100%.

Consider `CC(C)(C)C(=O)OC1=C(c2ccccc2Cl)C(=O)OC12CCCCC2` [Example I-2-b-1], for which, in assay [4], the “efficacy (destruction in %)” value is given as 100%.

Take `Cc1ccccc1-c1c(O)c(C)c(-c2ccccn2)oc1=O` [Example I-4-a-1]: the destruction in % is 100% in assay [1], 100% in assay [5], 85% in assay [2] and 100% in assay [3].
